From patent US11103605B2, “PET-imaging immunomodulators” (BRISTOL-MYERS SQUIBB COMPANY, priority 2016, dated 2021)
Where “and” joins values, the source holds several entries; their conditions need not be identical. Equal values may be shown once.

Columns and labels:
PD-L1 = target: T1, PD-L1 (Homo sapiens, UniProt Q9NZQ7); assay: In vitro autoradiography on human lung tumor and xenograft tissue sections; assay type: binding; conditions: 0.25 nM radiotracer, unlabelled peptide 0.1 nM, 1 nM, 10 nM
T1 construct: Human lung tumor tissues were embedded in OCT and chilled in 2-methylbutane; from tissue; host or cells: human non-small cell lung cancer biopsy sections; L2987 (hPD-L1+) and HT-29 (hPD-L1-) human xenograft sections grown in mice
Protocol: Human lung tumor tissues were embedded in OCT and chilled in 2-methylbutane for 2-5 minutes until frozen. Samples were stored in −80° C. degree freezer until use. Human xenograft tissues were also included in the assay. […] Once resulting xenograft tumors reached appropriate size (approx. 200-300 mm^3), mice were anesthetized with 2% isoflurane and sacrificed via cervical dislocation. Fresh tumor tissues were excised, immersed into OCT and chilled in 2-methylbutane for 2-5 minutes until frozen. The tissues were then wrapped in foil/ZIPLOC® bag and stored at −80° C. until use. For all tissues (human lung tumor and xenografts) sections of 5 μm thickness (collected as 2 sections/slide) were cut using a cryostat, thaw-mounted on glass microscope slides, and allowed to air dry for approximately 30 minutes. Blocking studies with cold (unlabelled) peptide at 0.1 nM, 1 nM, and 10 nM respectively. The individual slides, 1 slide per concentration, were transferred to glass slide incubation chambers for incubation. […] Autoradiography signals from tissue-associated radioactivity were quantified from these ROIs. The apparent displacement of the [^18F]labelled macrocyclic PD-L1 peptide radiotracer when compared to the total binding sections was determined for 3 different concentrations (0.1 nM, 1 nM, and 10 nM) of unlabeled peptide in both human lung tumor sections as well as human xenograft sections. […]

[1] = PET imaging of mice bearing bilateral xenograft tumors: hPD-L1(+) tumor; assay type: in vivo, mouse; conditions: mouse, hPD-L1(+) L2987 xenograft tumor, iv, total radioactivity, mean of 4 mice
Protocol: (§1) Mice bearing bilateral xenograft tumors were produced by introducing 2×10^6 hPD-L1(+) L2987 human lung carcinoma cells and 4×10^6 hPD-L1(−) HT-29 human colon carcinoma cells subcutaneously on opposite sides of the mouse. Once tumors reached approximately 300 mm^3 (approximately 2-3 weeks after cell implantation), animals were selected for imaging. The body weight and tumor size of each study were measured and recorded on the imaging day before imaging procedure. Mice were placed in an anesthetic induction chamber and 3% isoflurane inhalant anesthesia was delivered in 100% O2 at a rate of 1-1.5 L/min. Once sedated, mice were removed from the induction chamber and placed into a plexiglass 4-chamber mouse hotel (custom-made by BMS-Applied Biotechnology group), while continuing to receive 1-1.5% isoflurane inhalant anesthesia and delivered in 100% O2 at a rate of 2 L/min via the nose-cone. Animal were kept warm using an external standalone temperature regulating unit (M2M Imaging Corp) to prevent hypothermia during imaging. Mouse respiration was continuously monitored during imaging procedures and isoflurane may be adjusted dependent on depth of anesthesia. Mice were then placed into a custom animal holder with capacity for 4 animals, where they remained under anesthesia for the duration of the study. The animal holder was transferred to the microPET® F120™ scanner (Siemens Preclinical Solutions, Knoxville, Tenn.). The axial field of view of this instrument is 7.6 cm. With this limitation, animals were positioned such that the scanning region was from immediately in front of the eyes to approximately the base of the tail. A 10-minute transmission image was first acquired using a ^57Co point source for the purpose of attenuation correction of the final PET images. Following the transmission scan, radiotracer solutions were administered via the previously installed tail vein catheters and a 2 hour emission image was acquired. Injected radiotracer solutions were injected into a total 8 mice (body weight: 22.2±2.0 gram) with tumor volumes 203.0±51.4 mm^3 for HT-29 and 422.9±128.4 mm^3 for L2987 were imaged 16-17 days post cell implantation. Each mouse received a single injection of SC dose of PD-L1 binding macrocyclic peptide 60 mg/kg (N=4) or saline (N=4) 30 minute before the [^18F]labelled macrocyclic PD-L1 peptide (124.0±8.4 μCi, tracer mass: 1.0±0.4 μg/kg) IV injection. Images were reconstructed using a maxiumum a posteriori (MAP) algorithm with attenuation correction using the collected transmission images and corrected for radioisotope decay. In the final images, regions of interest (ROIs) were drawn around the tumor boundary using ASIPro software (Siemens Preclinical Solutions). Time-activity curves were calculated for each ROI to yield a quantitative view of radiotracer within the tumor volume over the course of the 2 hour emission image. For final comparison, individual time-activity curves were normalized based on the injected radiotracer dose for each specific animal. Radiotracer uptake was compared across tumors using the final 10 minutes of each time-activity curve (90-100 minutes post-radiotracer injection).

[2] = test system: hPD-L1(+) L2987 human lung carcinoma xenografts; assay: as above; assay type: in vivo, mouse; conditions: for SUV in L2987: individual mice
Protocol: as §1

T1 sequence (Q9NZQ7 19-290): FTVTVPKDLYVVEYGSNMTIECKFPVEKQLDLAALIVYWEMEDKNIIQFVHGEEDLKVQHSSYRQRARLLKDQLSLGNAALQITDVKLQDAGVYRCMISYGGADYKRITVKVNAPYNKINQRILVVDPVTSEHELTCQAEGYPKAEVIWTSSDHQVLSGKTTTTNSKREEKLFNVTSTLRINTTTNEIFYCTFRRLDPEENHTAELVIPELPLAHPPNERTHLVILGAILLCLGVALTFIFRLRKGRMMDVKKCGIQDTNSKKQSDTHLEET

CCCC[C@H]1C(=O)N(C)[C@@H](CCCC)C(=O)N[C@@H](CC(C)C)C(=O)N[C@H](C(=O)NCC(=O)N[C@@H](Cc2cn(CCOCCOCCOCCOc3cccnc3[18F])nn2)C(=O)O)CSCC(=O)N[C@@H](Cc2ccc(O)cc2)C(=O)N(C)[C@@H](C)C(=O)N[C@@H](CC(N)=O)C(=O)N2CCC[C@H]2C(=O)N[C@@H](CN)C(=O)N[C@@H](CC(C)C)C(=O)N2C[C@H](O)C[C@H]2C(=O)N[C@@H](Cc2c[nH]c3ccccc23)C(=O)N[C@@H](CCN)C(=O)N[C@@H](Cc2cn(CC(=O)O)c3ccccc23)C(=O)N1C [[^18F]labelled macrocyclic PD-L1 peptide]
displacement of radiotracer by unlabelled peptide (PD-L1): dose dependent displacement | SUV ([1]; 1 ug/kg, saline predose): 0.298 SUV | SUV ([1]; 60 mg/kg PD-L1 binding macrocyclic peptide predose): 0.05 SUV | radiotracer uptake in hPD-L1(+) L2987 xenografts relative to hPD-L1(−) HT-29 xenografts ([2]; SC 60 mg/kg PD-L1 binding macrocyclic peptide 30 minutes before radiotracer): 0.7 × | radiotracer uptake in hPD-L1(+) L2987 xenografts relative to hPD-L1(−) HT-29 xenografts ([2]; animals receiving only the radiotracer): 8.1 × | SUV in L2987 ([2]; 60 mg/kg PD-L1 binding macrocyclic peptide SC 30 min before tracer IV, 60 mg/kg): 0.060 and 0.055 and 0.042 and 0.043 | SUV in L2987 ([2]; saline (0 mg/kg PD-L1 binding macrocyclic peptide) SC 30 min before tracer IV, 90-100 minutes post-radiotracer injection): 0.231 and 0.452 and 0.297 and 0.213
